One block for each molecule: values may come before it.
Assays:
[1] = molecular target: ABL1 WT kinase (Homo sapiens (Human), UniProt P00519); test: In vitro enzymatic inhibitory activity against ABL1 WT kinase (capillary electrophoresis, EZ reader); assay type: biochemical; conditions: maximum concentration 1 μM
Method: Capillary electrophoresis was used to detect the phosphorylation conversion rate of the substrate peptide to determine the IC50 value of the test compound for inhibiting the kinase (ABL1-WT). The maximum concentration of the compound tested in the test was 1000 nM, with 3-fold dilution, and a total of 12 concentrations (1000-0.0056 nM). First, an enzyme reaction system (the concentration of enzyme ABL1-WT was 1.3 nM, the concentration of substrate FLPeptide2 was 1.5 μM, and the reaction factor was 10 mM MgCl2) was prepared. After incubation at room temperature for 30 min, […] of 4×ATP solution was added to start the enzyme reaction. After reacting at room temperature for 90 min, the reaction was stopped by adding a stop buffer (containing 0.5 M EDTA). The sample was analyzed using an EZ reader (analysis conditions: pressure −1.5 PSI, upper voltage current −2250V, lower voltage current −500V, separation time 40 sec, and system delay 100.0 sec).
From the conversion rate read by EZ Reader, the remaining activity was calculated according to the following formula.
IC50 was calculated using XLfit, and IC50 was calculated by Formula 201 as the fitting formula.

[2] = system: Ba/F3 BCR-ABL1-T315I; test: Inhibition of proliferation of Ba/F3 BCR-ABL1-T315I cells (CellTiter-Glo); assay type: cell-based; conditions: Mus musculus, BaF3, 72 h
From the text: (§1) To evaluate the inhibitory activity of the compound of the present invention against proliferation of the Ba/F3 BCR-ABL1-T315I, Ba/F3 BCR-ABL1-E255K, Ba/F3 BCR-ABL1-E255V, and Ba/F3 BCR-ABL1-G250E mutation models of mouse primary B cells cultured in vitro.
(§2) CellTiter-Glo® Luminescent Cell Viability Assay was used to detect the inhibitory effect of drugs on tumor cell proliferation and growth. The logarithmic growth phase cells cultured overnight were directly taken, blown, mixed and counted, the cell density was adjusted according to different cell density requirements, and the cells were prepared into a cell suspension and plated on a 96-well plate. Drugs at different concentrations were added, 3 replicate wells were set for each concentration, and corresponding vehicle controls were eset. […] The maximum concentration of the compounds detected in other cells was 500 nM, with 3.16-fold gradient dilution, and a total of 9 concentrations (500-0.0503 nM). […] The culture plate and its contents were equilibrated to room temperature, the CellTiter-Glo® reagent was added, the contents were mixed on a shaker for 5 min to induce cell lysis, the culture plate was further incubated at room temperature in the dark for 20 min, and the luminescence was read with a microplate reader.

[3] = system: Ba/F3 BCR-ABL1-E255V; test: Inhibition of proliferation of Ba/F3 BCR-ABL1-E255V cells (CellTiter-Glo); assay type: cell-based; conditions: Mus musculus, BaF3, 72 h
From the text: as §1, §2

[4] = system: Ba/F3 BCR-ABL1-E255K; test: Inhibition of proliferation of Ba/F3 BCR-ABL1-E255K cells (CellTiter-Glo); assay type: cell-based; conditions: Mus musculus, BaF3, 72 h
From the text: as §1, §2

[5] = system: Ba/F3 BCR-ABL1-G250E; test: Inhibition of proliferation of Ba/F3 BCR-ABL1-G250E cells (CellTiter-Glo); assay type: cell-based; conditions: Mus musculus, BaF3, 72 h
From the text: as §1, §2

[6] = system: K562; test: Inhibition of proliferation of K562 cells (CellTiter-Glo); assay type: cell-based; conditions: Homo sapiens, 72 h
From the text: (§3) To evaluate the inhibitory activity of the compounds of the present invention against proliferation of human erythroleukemia cells K562, human peripheral blood basophilic leukemia cells Ku812, and human chronic myelogenous leukemia cells KCL22-s and KCL22-r cultured in vitro.
(§4) CellTiter-Glo® Luminescent Cell Viability Assay was used to detect the inhibitory effect of drugs on tumor cell proliferation and growth. The logarithmic growth phase cells cultured overnight were directly taken, blown, mixed and counted, the cell density was adjusted according to different cell density requirements, and the cells were prepared into a cell suspension and plated on a 96-well plate. Drugs at different concentrations were added, three replicate wells were set for each concentration, and corresponding solvent controls were set. The maximum concentration of compound detected was 500 nM, with 3-fold gradient dilution, and a total of 9 concentrations (500-0.076 nM). […] The culture plate and its contents were equilibrated to room temperature, the CellTiter-Glo® reagent was added, the contents were mixed on a shaker for 3 min to induce cell lysis, the culture plate was further incubated at room temperature in the dark for 10 min, and the chemiluminescence signal value was determined by a microplate reader (BioTek SynergyH1).

[7] = system: Ku812; test: Inhibition of proliferation of Ku812 cells (CellTiter-Glo); assay type: cell-based; conditions: Homo sapiens, 72 h
From the text: as §3, §4

[8] = system: KCL22-s; test: Inhibition of proliferation of KCL22-s cells (CellTiter-Glo); assay type: cell-based; conditions: Homo sapiens, 72 h, imatinib-sensitive strain
From the text: as §3, §4

[9] = system: KCL22-r; test: Inhibition of proliferation of KCL22-r cells (CellTiter-Glo); assay type: cell-based; conditions: Homo sapiens, 72 h, imatinib-resistant strain
From the text: as §3, §4

[10] = system: human chronic myeloid leukemia cell line KCL22-s xenograft tumor; test: Anti-tumor efficacy in KCL22-s subcutaneous xenograft tumor model; assay type: in vivo, BALB/c nude mouse; conditions: oral, dosing cycle 15 days
Method: To evaluate the efficacy of the test compound on the human chronic myeloid leukemia cell strain KCL22-s in the BALB/c nude mouse subcutaneous xenograft tumor model.
BALB/c nude mice, 8-10 weeks.
The resuscitated cells were placed in a cell culture flask (the cell type, date, name of the person for culture and so on were marked on the flask wall) and then placed in a CO2 incubator (the incubator temperature was 37° C. and the CO2 concentration was 5%) for incubation. • b, The cells were passaged. After passage, the cells continued to be cultured in the CO2 incubator. This process was repeated until the cell number met the in vivo drug efficacy requirements. • c, The cultured cells were collected and counted with a fully automatic cell counter.
• a, According to the tumor growth, the tumor was measured on the 15th day after inoculation and the tumor size was calculated.

ABL1 WT kinase, sequence (P00519 whole entry): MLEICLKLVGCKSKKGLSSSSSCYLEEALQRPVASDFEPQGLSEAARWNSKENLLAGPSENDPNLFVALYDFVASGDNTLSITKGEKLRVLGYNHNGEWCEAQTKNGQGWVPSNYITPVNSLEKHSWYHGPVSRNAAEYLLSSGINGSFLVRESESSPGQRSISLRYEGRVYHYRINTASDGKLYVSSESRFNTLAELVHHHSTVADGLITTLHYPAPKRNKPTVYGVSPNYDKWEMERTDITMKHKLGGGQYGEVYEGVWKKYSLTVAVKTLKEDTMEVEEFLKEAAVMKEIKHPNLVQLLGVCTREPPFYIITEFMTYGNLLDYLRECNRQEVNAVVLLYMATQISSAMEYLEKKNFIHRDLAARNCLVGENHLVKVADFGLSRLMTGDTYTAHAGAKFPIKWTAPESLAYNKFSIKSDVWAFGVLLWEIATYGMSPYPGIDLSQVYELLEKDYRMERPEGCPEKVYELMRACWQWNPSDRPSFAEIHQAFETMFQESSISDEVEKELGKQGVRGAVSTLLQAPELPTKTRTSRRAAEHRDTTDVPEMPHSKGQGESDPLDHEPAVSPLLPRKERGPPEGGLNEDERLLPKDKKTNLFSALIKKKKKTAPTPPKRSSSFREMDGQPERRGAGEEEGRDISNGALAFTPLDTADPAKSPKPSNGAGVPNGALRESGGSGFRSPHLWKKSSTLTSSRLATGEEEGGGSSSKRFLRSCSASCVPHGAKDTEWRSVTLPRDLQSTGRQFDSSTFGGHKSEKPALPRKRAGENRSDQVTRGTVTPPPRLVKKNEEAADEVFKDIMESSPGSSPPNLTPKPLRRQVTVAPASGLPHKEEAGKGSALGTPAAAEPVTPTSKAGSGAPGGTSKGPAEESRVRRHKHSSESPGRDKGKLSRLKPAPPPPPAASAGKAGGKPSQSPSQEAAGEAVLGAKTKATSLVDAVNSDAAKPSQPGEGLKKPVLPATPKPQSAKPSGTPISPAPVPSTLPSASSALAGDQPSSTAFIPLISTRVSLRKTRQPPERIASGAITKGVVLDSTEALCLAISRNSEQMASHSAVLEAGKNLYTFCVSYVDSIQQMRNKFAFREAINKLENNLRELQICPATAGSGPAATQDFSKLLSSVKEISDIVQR

- IC50 [1]: 0.43 nM
- IC50 [2]: 46.8 nM
- IC50 [3]: 7.15 nM
- IC50 [4]: 26.3 nM
- IC50 [5]: 5.36 nM
- IC50 [6]: 13 nM
Structure (SMILES): C[C@@H]1COC2NC=NC=C2c2cc(C(=O)Nc3ccc(OC(F)(F)Cl)cc3)cc3nc(C(F)F)n1c23.Cc1ccc(S(=O)(=O)O)cc1 (stereo partly drawn) [Example 1, (3R)-N-(4-(chlorodifluoromethoxy)phenyl)-2-(difluoromethyl)-3-methyl-3,4,5a,6-tetrahydro-5-oxa-1,2a,6,8-tetraazabenzo[4,5]cyclooctyl[1,2,3-cd]indene-11-carboxamide p-toluenesulfonate Salt]
- IC50 [7]: 4.13 nM
- IC50 [8]: 2.99 nM
- IC50 [9]: 14.6 nM
- T/C ([10]; 1.5 mg/kg bid): 7.05%
- TGI ([10]; 1.5 mg/kg bid): 98.20%
- Tumor volume ([10]; 1.5 mg/kg bid): 143 ± 35 mm^3
- T/C ([10]; 3 mg/kg bid): 0.69%
- TGI ([10]; 3 mg/kg bid): 187.08%
- Tumor volume ([10]; 3 mg/kg bid): 14 ± 5 mm^3
- T/C ([10]; 3 mg/kg qd): 3.98%
- TGI ([10]; 3 mg/kg qd): 127.26%
- Tumor volume ([10]; 3 mg/kg qd): 81 ± 19 mm^3
- T/C ([10]; 7.5 mg/kg bid): 0.52%
- TGI ([10]; 7.5 mg/kg bid): 190.62%
- Tumor volume ([10]; 7.5 mg/kg bid): 11 ± 7 mm^3

Structure (SMILES): Cc1ccc(NC(=O)c2ccc(CN3CCN(C)CC3)cc2)cc1Nc1nccc(-c2cccnc2)n1 [Imatinib, reference compound]
- T/C ([10]; 75 mg/kg qd): 46.92%
- TGI ([10]; 75 mg/kg qd): 56.03%

From US20240400582A1, “FOUR-MEMBERED FUSED RING COMPOUND AND PREPARATION METHOD AND USE THEREOF” (JIANGSU HANSOH PHARMACEUTICAL GROUP CO., LTD., priority 2021, published 2024)
